Records with an inconclusive call do not appear. Activity calls are given as the source filed them.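 The calls were made as follows: active = Wild-type ribosome reporter drop at least double the humanized mutant ribosome reporter drop, growth loss under a set limit; inconclusive = no clear call, values can overlap the other calls; inactive = the rest.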
Test system: E. coli wild-type GFP strain growth, fluorescence, 24 h
Test: growth inhibition of wild-type GFP E. coli, dose response, H69 mutant RFP, cherry-pick (AID 977621);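 also: wild-type GFP and H69 mutant RFP strains grown together 50/50 in each well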
[1] = E. coli mixed culture, 24 h, measured here: total growth OD600, test 2

Compound	AC50	AC50 (measured here: total growth OD600, test 2) [µM]	AC50 [1] [µM]
Cc1c(-c2cccc(Cl)c2)nc2ccccc2c1C(=O)N1CCC2(CC1)OCCO2	> 100 µM (inactive)	> 100	
CSCCC(=O)Nc1nc(-c2ccccn2)cs1	> 100 µM (inactive)		
CCOC(=O)C1CCCN(C(=O)c2csc(-c3ccc4c(c3)CCO4)n2)C1 (configuration not stated)	> 100 µM (inactive)		
COc1ccc(CNS(=O)(=O)c2ccc3c(c2)NC(=O)C(C)S3)cc1 (configuration not stated)	> 100 µM (inactive)		
CCN(C(=O)COC(=O)c1ccc([N+](=O)[O-])o1)c1cccc2ccccc12	> 100 µM (inactive)		
O=C(CC(=O)c1cccs1)c1ccncc1	> 100 µM (inactive)		
CN1CCN(c2nc(Nc3ccc(O)cc3)nc3ccccc23)CC1	> 100 µM (inactive)		
O=C1OCCC1Sc1nc2ccccc2c(=O)n1Cc1ccccc1 (configuration not stated)	> 100 µM (inactive)		
CCCn1c(NCc2ccc3c(c2)OCO3)nc2ccccc21	> 100 µM (inactive)		49.9
O=C(Nc1ccc(Cl)cn1)c1ccc([N+](=O)[O-])o1			> 100
O=C(CN1C(=O)c2ccccc2C1=O)Nc1cccc(S(=O)(=O)Nc2ccccc2Cl)c1	> 100 µM (inactive)		
COc1ccc(C(=O)C2CCCN(C(=O)c3noc4c3CCCC4)C2)cc1F (configuration not stated)	> 100 µM (inactive)		
O=C(Nc1cccc(Cl)c1)N1C[C@H]2[C@@H](c3ccccc31)[C@H](CO)N2CC1CCCCC1	> 100 µM (inactive)		
Cc1ccc(C(=O)CSc2nnc(COc3cccc4cccnc34)o2)cc1	> 100 µM (inactive)		46.3
CCOC(=O)c1nc(C)sc1-c1ccnn1S(=O)(=O)c1ccc(C)cc1	> 100 µM (inactive)		
CCOc1ccc(OCC)c(NC(=O)CSc2nc3cccnc3n2C)c1	> 100 µM (inactive)		36.6
CCN(c1ccc(OC)cc1)S(=O)(=O)c1cc(-c2cc(C)no2)ccc1OC	> 100 µM (inactive)		36.8
Cc1ccc(C)c(N2CCN(C(=O)CCS(=O)(=O)c3ccc4c(c3)oc(=O)n4C)CC2)c1			> 100
S=c1[nH]c2cc(Cl)ccc2s1	> 100 µM (inactive)		
Cc1onc(-c2ccccc2)c1-c1nnc(-c2ccccc2C(F)(F)F)o1	> 100 µM (inactive)		
O=C(CC(c1ccccc1)c1cc(Br)ccc1O)N1CCCC1 (configuration not stated)	> 100 µM (inactive)		36.4
O=C(Nc1ccc(S(=O)(=O)N2CCCC2)cc1)c1ccc(OCC2CCCO2)cc1 (configuration not stated)	> 100 µM (inactive)		
O=C(CSc1nnc(-c2ccccc2F)n1C1CC1)Nc1cccnc1Cl			> 100

Compound	AC50	AC50 (measured here: total growth OD600, test 2) [µM]	AC50 [1] [µM]
COc1cc(-c2ccc(N3C(c4ccsc4)=Cc4ccc(F)cc4C3c3c[nH]c4ccc(C#N)cc34)cc2)cc(OC)c1OC (configuration not stated)			> 100
O=C(CN(CCO)c1ccccc1)Nc1cccc(S(=O)(=O)N2CCCC2)c1	> 100 µM (inactive)		
Cc1ccc(OCC(O)CN2CCN(c3ccccn3)CC2)c(C)c1 (configuration not stated)	> 100 µM (inactive)		45.6
CCOc1ccc2nc(NC(=O)CSc3nc(SC)ns3)sc2c1			> 100
COc1ccc([C@H]2C[C@H](O)C[C@@H](CCn3cc(-c4ccccc4)nn3)O2)cc1	> 100 µM (inactive)		> 100
CN(CCOc1ccccc1)S(=O)(=O)c1ccccc1C#N			> 100
CCN(c1ccccc1)S(=O)(=O)c1ccc(Cl)c(NC(=O)CSc2n[nH]c(N)n2)c1	> 100 µM (inactive)		
O=C(CCc1nc2ccccc2s1)OCC(=O)c1ccc[nH]1	> 100 µM (inactive)		
Cc1cc(Br)ccc1SCC(=O)OCC(=O)NCc1ccco1	> 100 µM (inactive)		
CCOc1ccccc1N(CC(=O)Nc1ccccc1F)S(=O)(=O)c1ccccc1	> 100 µM (inactive)		15.6
Cc1cc(C(C)(C)C)oc1C(=O)N(CC(=O)NC1CCCC1)c1c(C)cccc1C	> 100 µM (inactive)		> 100
O=C1c2ccccc2NC(c2cccc(F)c2)N1Cc1ccco1 (configuration not stated)			9.09
Cc1cc(NC(=O)CN2CCN(c3cccc(Cl)c3)CC2)no1	> 100 µM (inactive)		
O=C(COC(=O)CCSc1ccc(F)cc1)NCc1ccc(F)cc1	> 100 µM (inactive)		
CC(=O)c1cccc(NC(=O)COC(=O)C2CCCN2C(=O)c2cccs2)c1 (configuration not stated)	> 100 µM (inactive)		
COc1ccc(CNc2ncnc3cc(OC)c(OC)cc23)cc1OC	> 100 µM (inactive)		
C[C@H](CO)N1C[C@H](C)[C@@H](CN(C)Cc2ccncc2)OCc2ccccc2-c2c(n(C)c3ccccc23)C1=O			40.2
COc1ccccc1-c1ccc(SCc2cccc(F)c2)nn1	> 100 µM (inactive)		20.3
O=C(Cn1cc(C(=O)c2ccco2)c2ccccc21)Nc1ccccc1F	> 100 µM (inactive)		
COc1ccc(-c2cc(C(=O)Nc3ccc(C(N)=O)cc3)c3ccccc3n2)cc1OC			> 100
O=S(=O)(c1ccccc1)N1CC[C@@H]2[C@H](CO)Nc3ccc(Br)cc3[C@@H]21			43.4
COc1ccc(CN(CC(O)COCc2ccccc2)S(=O)(=O)c2ccccc2Br)cc1OC (configuration not stated)	> 100 µM (inactive)		28.5
Cc1cccc(C)c1OCc1n[nH]c(=S)n1-c1ccccc1	> 100 µM (inactive)		44.8

Compound	AC50	AC50 (measured here: total growth OD600, test 2) [µM]	AC50 [1] [µM]
c1ccc(CN2CCN(C3CCCSc4ccccc43)CC2)cc1 (configuration not stated)	> 100 µM (inactive)		49.8
S=c1[nH]nc(-c2ccc(Br)cc2)n1-c1ccc2c(c1)OCCO2	> 100 µM (inactive)		
CC(=O)c1ccc(OCC(=O)Nc2ccc3c(c2)CCC3)cc1			> 100
Cc1ccc(NC(=O)c2ccc(CSc3ccccn3)cc2)c(O)c1	> 100 µM (inactive)		20.9
Cc1cc(C)c2sc(N(CCN(C)C)C(=O)c3c(F)cccc3F)nc2c1	> 100 µM (inactive)		> 100
COc1ccc(N(CCC(=O)O)S(=O)(=O)c2ccc(C)cc2C)cc1			> 100
O=C(NCc1ccc(-c2nc3ccccc3s2)cc1)c1ccco1	> 100 µM (inactive)		
C[C@@H]1NS(=O)(=O)c2c(F)cccc2O[C@@H]1c1ccccc1	> 100 µM (inactive)		
COc1ccccc1Cn1c(=S)[nH]c2ccccc2c1=O	> 100 µM (inactive)		
COc1ccc(OC)c(NC(=O)COC(=O)C2CCN(C(=O)c3ccc(Cl)cc3)CC2)c1			> 100
O=C(COC(=O)C1CC1)Nc1nc(-c2ccc(F)c(F)c2)cs1			> 100
O=C1C(c2ccccc2)c2ccccc2N1Cc1ccccc1 (configuration not stated)	> 100 µM (inactive)		
Cc1cc(C)c(OCC(=O)OCC(=O)N2CCc3ccccc3C2)c(C)c1	> 100 µM (inactive)		> 100
COc1cccc(C(=O)N2C[C@@H]3[C@H](c4ccccc42)[C@H](CO)N3Cc2ccccc2Cl)c1	> 100 µM (inactive)		48.8
Cc1cccc(CSCC(=O)N2CCN(S(=O)(=O)c3ccccc3C#N)CC2)c1	> 100 µM (inactive)		
O=C(NCc1nnc(SCc2ccccc2)n1-c1ccccc1)C12CC3CC(CC(C3)C1)C2	> 100 µM (inactive)		38.6
N#Cc1ccc(OCC(=O)N2CCN(S(=O)(=O)c3ccc(Cl)s3)CC2)cc1	> 100 µM (inactive)		
CCC(=O)c1ccc(OCC(=O)Nc2nc(C)cs2)cc1	> 100 µM (inactive)		> 100
C[C@@H]1CCCCO[C@@H](CN(C)C(=O)c2ccccc2)[C@H](C)CN([C@@H](C)CO)C(=O)c2cc(NC(=O)c3ccccc3)ccc2O1	> 100 µM (inactive)		
CCC(=O)Nc1nc2ccc(NC(=O)c3cc(OC)c(OC)c(OC)c3)cc2s1	> 100 µM (inactive)		
COc1ccc(NS(=O)(=O)c2cccc3ccccc23)cc1			33.7
COc1ccc(OC)c(CN2CCCC(C(=O)c3ccccc3SC)C2)c1 (configuration not stated)	> 100 µM (inactive)		
CCCCSc1nc(N)c(C#N)c(-c2cccs2)c1C#N	> 100 µM (inactive)		

Compound	AC50	AC50 (measured here: total growth OD600, test 2) [µM]	AC50 [1] [µM]
CCOC(=O)c1cnc2c(cnn2C)c1NCc1ccc(OC)cc1	> 100 µM (inactive)		> 100
CCn1nc(Cc2cccc3ccccc23)c(C#N)c1N	> 100 µM (inactive)		
CCc1cc(C(=O)N2CCCC(C(=O)c3cccc4ccccc34)C2)n(C)n1 (configuration not stated)			> 100
CSc1ccccc1OCc1cc(C(=O)N(C)Cc2nonc2C)no1			> 100
N#Cc1ccccc1CSc1nc2ccc(NC(=O)c3ccccc3C(=O)O)cc2s1	> 100 µM (inactive)		
COc1cc(CO)cc(Br)c1OCC(=O)Nc1cccc2ccccc12	> 100 µM (inactive)		
O=C(Cc1ccc(NC(=O)C2CCCN(C(=O)CCc3ccccc3)C2)cc1)Nc1cccc(C(=O)N2CCCC2)c1 (configuration not stated)	> 100 µM (inactive)		> 100
O=C(CN1CCC(n2nnc3cc(F)ccc32)CC1)N1CCc2ccccc2C1	> 100 µM (inactive)		
O=[N+]([O-])c1ccc(N2CCOCC2)c2c1no[n+]2[O-]	> 100 µM (inactive)		
CCOc1cccc(-c2cc(-c3n[nH]c(=S)n3CC)c3ccccc3n2)c1			38.3
O=C(CC1C(=O)N(c2ccc(Cl)cc2)C(=S)N1CCc1ccncc1)Nc1ccc(F)cc1 (configuration not stated)			36.4
Cc1cc(NC(=O)COC(=O)CSCc2ccc(Cl)c(Cl)c2)no1	> 100 µM (inactive)		> 100
COc1ccc(OC)c(NC(=O)COc2ccc(S(=O)(=O)NC(C)C)cc2)c1			> 100
O=C(NCCCCc1ccccc1)c1cccc(NC(=O)C2CCCCC2)c1	> 100 µM (inactive)		46.8
O=c1[nH]c(C2CCN(S(=O)(=O)c3ccc4c(c3)OCCO4)CC2)nc2c1nnn2Cc1ccccc1F	> 100 µM (inactive)		
O=C(c1ccc(N2CCCCC2)c([N+](=O)[O-])c1)N1CCN(c2ccccn2)CC1	> 100 µM (inactive)		> 100
Cc1ccc(N2C(=S)NC3c4cc(Cl)ccc4OC2(C)C3C(=O)N(C)C)cc1 (configuration not stated)			> 100
Cc1ccc(NC(=O)c2ccc([N+](=O)[O-])o2)c(C)c1	> 100 µM (inactive)		
CCOc1ccccc1OCCCC(=O)N1CCN(S(=O)(=O)c2cc(F)ccc2F)CC1	> 100 µM (inactive)		
COc1ccc(C(=O)Cn2nnc(-c3ccccc3F)n2)cc1	> 100 µM (inactive)		41.2
O=C(Nc1ccc2c(c1)OCO2)c1cc(-c2ccncc2)nc2ccccc12	> 100 µM (inactive)		
Cc1n[nH]c(C)c1S(=O)(=O)N1CCCC(C(=O)Nc2ccc(Br)cc2)C1 (configuration not stated)	> 100 µM (inactive)		
